Experimental data from PubChem BioAssay AID463136 (University of Pittsburgh Molecular Library Screening Center, 2010).
Results filed as inconclusive are left out. Active and inactive are the calls of the source. The rule behind the calls is not given here.

Assays:
[1] = dynein cargo transport inhibitors, potency, dose response, imaging, high-content imaging (AID 463136); settings: HCS imaging, dynein-mediated cargo transport inhibition; inhibition at max concentration; at 50 µM; stronger effect = higher value;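 note: mouse mammary adenocarcinoma 3617.4 cells expressing GFP-tagged rat glucocorticoid receptor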; for inhibition: reference of the scale not given here
[2] = test system: HCS imaging, dynein-mediated cargo transport inhibition; assay: as above

COc1cccc(N(C(=O)CCl)C(C(=O)NCCc2ccccc2)c2cccs2)c1 (stereo unspecified)
inhibition [1]: 85.4%
IC50 [2]: 27.1 µM

CCCNC(=O)c1nnsc1S(=O)c1ccc(Cl)cc1 (stereo unspecified)
inhibition [1]: 77%
IC50 [2]: 7.07 µM

CCOC(=O)c1c(NC(=O)/C=C/C(=O)O)sc(C)c1-c1ccc(Cl)cc1
inhibition [1]: 93.3%
IC50 [2]: 9.7 µM

O=[N+]([O-])c1cc(S(=O)(=O)N2CCCCCC2)ccc1F
inhibition [1]: 87.3%
IC50 [2]: 33.7 µM

CS(=O)(=O)c1cc([N+](=O)[O-])c(Sc2nc3ccccc3[nH]2)c([N+](=O)[O-])c1
inhibition [1]: 22.9%
IC50 [2]: > 50 µM (inactive)

CC(C)CC(=O)/C=C/n1c(=S)oc2ccccc21
inhibition [1]: 24.5%
IC50 [2]: > 50 µM (inactive)

CC(=O)n1cc(N(C(=O)CCl)c2ccc(C)cc2)c2ccccc21
inhibition [1]: 68.7%
IC50 [2]: 16.8 µM

Cc1nc([N+](=O)[O-])c(Br)n1CC(=O)c1ccccc1
inhibition [1]: 82.1%
IC50 [2]: 1.96 µM

COc1ccc2c(c1)c1ccc3c(c1n2C)C(=O)C=CC3=O
inhibition [1]: 93.1%
IC50 [2]: 14.5 µM

O=C(c1nnsc1S(=O)c1ccc(Cl)cc1)N1CCOCC1 (stereo unspecified)
inhibition [1]: 76.9%
IC50 [2]: 2.18 µM

O=C(/C=C/c1cccnc1)/C=C/c1cccnc1
inhibition [1]: 88.7%
IC50 [2]: 3.09 µM

CCOc1ccc(CN(C)C(=O)CCl)cc1
inhibition [1]: 85.8%
IC50 [2]: 10.2 µM

CCOC(=O)C1=C(SCC)c2cc3c(n2C1=O)CCCC3
inhibition [1]: 37.7%
IC50 [2]: > 50 µM (inactive)

O=C(/C(=C/c1ccc(Cl)cc1)c1nc2ccccc2[nH]1)c1cccs1
inhibition [1]: 81.7%
IC50 [2]: 24.9 µM

O=c1c(Cl)c(Cl)cnn1Cc1ccccc1Cl
inhibition [1]: 51.4%
IC50 [2]: 23.8 µM

COc1ccc(-c2csc3nc(-c4cccnc4)nc(Cl)c23)cc1OC
inhibition [1]: 84.4%
IC50 [2]: 27.5 µM

Cc1[nH]c2ccccc2c1/C=N/Nc1ccc([N+](=O)[O-])cc1
inhibition [1]: 132%
IC50 [2]: 24.8 µM

COc1ccc(CN(CCC(c2ccccc2)c2ccc(OC(C)C)cc2)C(=O)CCl)cc1OC (stereo unspecified)
inhibition [1]: 34.9%
IC50 [2]: > 50 µM (inactive)

Cc1cc(C)cc(Cn2ncc(Cl)c(Cl)c2=O)c1
inhibition [1]: 63.9%
IC50 [2]: 22.7 µM

CC(=O)Nc1c([N+](=O)[O-])cc(C)c(Cl)c1[N+](=O)[O-]
inhibition [1]: 88.8%
IC50 [2]: 11.2 µM

Nc1c(C(=O)c2ccc(Cl)cc2)sc2nsc(SCCN3CCOCC3)c12
inhibition [1]: 7.23%
IC50 [2]: > 50 µM (inactive)

O=c1oc2c3c4c(cc2c(C(F)(F)F)c1CCN1CCOCC1)CCCN4CCC3
inhibition [1]: 99.3%
IC50 [2]: 36.4 µM

Cc1ccc(NC(=O)c2cc(N3C(=O)C=CC3=O)ccc2N2CCOCC2)cc1
inhibition [1]: -6.6%
IC50 [2]: > 50 µM (inactive)

CC(=O)/C=C/n1c(=S)oc2ccccc21
inhibition [1]: 69.5%
IC50 [2]: 23.4 µM

CCOc1ccc(-n2c(C)cc(C(=O)CCl)c2C)cc1
inhibition [1]: 82.2%
IC50 [2]: 24.9 µM

CCOC(=O)/C(=C\c1cccnc1)C(=O)c1cc(C(C)=O)c(Nc2ccccc2)s1
inhibition [1]: 80.4%
IC50 [2]: 9.84 µM

Cc1cc(C(=O)CCl)c(C)n1-c1ccon1
inhibition [1]: 61.3%
IC50 [2]: 11.8 µM

CC(C)N1C/C(=C/c2cccnc2)C(=O)/C(=C/c2cccnc2)C1
inhibition [1]: 83%
IC50 [2]: 8.41 µM

O=C(c1ccccc1)c1cc(Cl)ccc1N1C(=O)C=CC1=O
inhibition [1]: 12%
IC50 [2]: > 50 µM (inactive)

COc1ccc(CN=Cc2[nH]c3ccc(Br)c(Cl)c3c2O)cc1
inhibition [1]: 93.4%
IC50 [2]: 28.5 µM

CCOC(=O)c1c(-n2c(C)cc(C=C3C(=O)NC(=S)NC3=O)c2C)sc2c1CCCC2
inhibition [1]: 78.1%
IC50 [2]: 5.75 µM

COC(=O)c1cc(=O)n(Cc2ccc3c(c2)OCO3)c(=Nc2ccc(F)c(Cl)c2)s1
inhibition [1]: 8.81%
IC50 [2]: > 50 µM (inactive)

Cc1nc([N+](=O)[O-])c(Br)n1CC(=O)c1cccc([N+](=O)[O-])c1
inhibition [1]: 91.4%
IC50 [2]: 9.94 µM

CC(C(Sc1ccccc1N)c1ccccc1)[N+](=O)[O-] (stereo unspecified)
inhibition [1]: 84.4%
IC50 [2]: 24.7 µM

CC(=O)OCCCNc1cc(Sc2ccc(Cl)cc2)c2nonc2c1[N+](=O)[O-]
inhibition [1]: 60.4%
IC50 [2]: 41 µM

COc1cccc(N2C(=O)NC(=O)/C(=C\c3ccc([N+](=O)[O-])s3)C2=O)c1
inhibition [1]: 85.4%
IC50 [2]: 13.5 µM

Cc1c(N=C2C=CC(=O)c3ccccc32)c(=O)n(-c2ccccc2)n1C
inhibition [1]: 76.4%
IC50 [2]: 39.6 µM

Clc1ncnc2scc(-c3ccc(Br)cc3)c12
inhibition [1]: 85.1%
IC50 [2]: 19.9 µM

COc1ccccc1N1C(=O)CC(Sc2n[nH]c(-c3cccc(C)c3)n2)C1=O (stereo unspecified)
inhibition [1]: 5.74%
IC50 [2]: > 50 µM (inactive)

CN1CCN(S(=O)(=O)c2ccc(Sc3nnnn3-c3ccccc3)c([N+](=O)[O-])c2)CC1
inhibition [1]: 75.4%
IC50 [2]: 17.5 µM

O=c1c(Cl)c(Cl)cnn1Cc1ccc(F)cc1
inhibition [1]: 80.4%
IC50 [2]: 10.3 µM

N#C/C(=C/c1ccc(N2CCCCC2)o1)C(=O)Nc1ccc2ccccc2c1
inhibition [1]: 98.5%
IC50 [2]: 27.4 µM

Cc1cccc(N2C(=O)NC(=O)/C(=C\C=C\c3ccco3)C2=O)c1
inhibition [1]: 89.4%
IC50 [2]: 33.4 µM

O=C(NC1CCCC1)C(c1ccc(Cl)cc1)N(Cc1ccc(F)cc1)C(=O)CCl (stereo unspecified)
inhibition [1]: 75.1%
IC50 [2]: 34.8 µM

COc1ccc(N=C2S/C(=C\c3ccc(N4CCOCC4)o3)C(=O)N2CCc2c[nH]c3ccccc23)cc1
inhibition [1]: 127%
IC50 [2]: 27.1 µM

COc1cccc(/C=C/C(=O)c2cccc([N+](=O)[O-])c2)c1OC
inhibition [1]: 27.1%
IC50 [2]: > 50 µM (inactive)

O=C1C(Cl)=C(N2CCCCC2)C(=O)C(Cl)=C1c1cnc(N2CCCCC2)s1
inhibition [1]: 94.6%
IC50 [2]: 33.2 µM

COc1ccc(/C=C\c2nc(=O)c3ccccc3o2)cc1
inhibition [1]: 86.9%
IC50 [2]: 6.91 µM

CN(C)c1ccc(/C=C/C(=O)c2cccc(Br)c2)cc1
inhibition [1]: 18.7%
IC50 [2]: > 50 µM (inactive)

Nc1c(C(=O)N/N=C/c2ccc(F)cc2)oc2nc(-c3ccccc3)cc(-c3ccco3)c12
inhibition [1]: 40.9%
IC50 [2]: > 50 µM (inactive)

O=C(CCl)N1N=C(c2cccs2)CC1c1ccco1 (stereo unspecified)
inhibition [1]: 47.6%
IC50 [2]: > 50 µM (inactive)

COc1cc(/C=C2\COC/C(=C\c3ccc(O)c(OC)c3)C2=O)ccc1O
inhibition [1]: 64.3%
IC50 [2]: 39.7 µM

C=C1C(=O)C=C2CN(C(=O)c3ccccc3)[C@@](Cc3ccc(F)cc3)(C(=O)OC)[C@@H]12
inhibition [1]: 80.3%
IC50 [2]: 4 µM

Nc1cccc2c1C(=O)N(C(=O)/C=C/c1ccc(F)cc1)C2=O
inhibition [1]: 37.6%
IC50 [2]: > 50 µM (inactive)

COc1ccc(-c2cc(C(F)(F)F)nc(S(=O)(=O)CCCC(=O)Nc3cc(C)on3)n2)cc1OC
inhibition [1]: 67.2%
IC50 [2]: 42.9 µM

CC(C)(C)c1cc(CN(CCO)CCO)cc(C(C)(C)C)c1O
inhibition [1]: 33.9%
IC50 [2]: > 50 µM (inactive)

O=c1c2ccccc2sn1-c1ccccc1
inhibition [1]: 90.4%
IC50 [2]: 12.7 µM

CN1CCN(C2=C(Cl)C(=O)C(c3cnc(N4CCCCC4)s3)=C(Cl)C2=O)CC1
inhibition [1]: 94.7%
IC50 [2]: 33.3 µM

Cc1cccc(N(Cc2ccccc2)C(=O)CCl)c1
inhibition [1]: 63.4%
IC50 [2]: 11.9 µM

C=CCN1C(=O)NC(=O)/C(=C/C=C/c2ccccc2)C1=O
inhibition [1]: -33.3%
IC50 [2]: > 50 µM (inactive)

Cc1ccc(-n2ncc(Br)c(Br)c2=O)cc1
inhibition [1]: 70.1%
IC50 [2]: 13.8 µM

CCN1C/C(=C/c2ccc(N3CCOCC3)cc2)C(=O)/C(=C/c2ccc(N3CCOCC3)cc2)C1
inhibition [1]: 108%
IC50 [2]: 25 µM

Cn1c(=O)c([N+](=O)[O-])c(Cl)c2ccccc21
inhibition [1]: 84%
IC50 [2]: 39.4 µM

CCOC(=O)c1c(NC(=S)N2CCCCC2)sc2c1CCN(C(=O)OCC)C2
inhibition [1]: 30.3%
IC50 [2]: > 50 µM (inactive)

C#CC(=O)N(c1cccc(OC)c1)C(C(=O)NC1CCCC1)c1cccs1 (stereo unspecified)
inhibition [1]: 16.5%
IC50 [2]: > 50 µM (inactive)

CSc1nnc(C)c(/C=C/Nc2ccc(C)cc2)n1
inhibition [1]: 109%
IC50 [2]: 31 µM

CCCCc1cc(O)c(CCCC)c(O)c1
inhibition [1]: 76.8%
IC50 [2]: 2.31 µM

Cc1cccc2cc3c(N)c(C(=O)N4CCCc5ccccc54)sc3nc12
inhibition [1]: 116%
IC50 [2]: 35.2 µM

COC(=O)c1cc(=O)n(Cc2ccc(OC)c(OC)c2)c(=Nc2ccc(F)cc2)s1
inhibition [1]: 74.3%
IC50 [2]: 24.6 µM

O=C(CCl)c1ccc2c(c1)CCN2C(=O)C1CCCCC1
inhibition [1]: 78.2%
IC50 [2]: 27 µM

CC(=O)/C(=C/c1ccccc1)C(=O)Nc1ccccc1C
inhibition [1]: 70.1%
IC50 [2]: 15.9 µM

O=C1C=C(c2ccc(Cl)cc2)C(=O)N1Nc1ccccc1
inhibition [1]: 75.7%
IC50 [2]: 39.3 µM

Cc1nnc(NC(=O)c2sc3nc(-c4cccs4)cc(C(F)(F)F)c3c2N)s1
inhibition [1]: 154%
IC50 [2]: 2.21 µM

O=C1NC(=O)N(c2ccccc2)C(=O)/C1=C\C=C\c1ccccc1
inhibition [1]: 80.9%
IC50 [2]: 28.8 µM

CCN(CC)c1ccc2cc(-c3nc4ccccc4[nH]3)c(=O)oc2c1
inhibition [1]: 98.9%
IC50 [2]: 21.9 µM

CCOC(=O)c1c(NC(=S)N2CCOCC2)sc2c1CCN(C(=O)OCC)C2
inhibition [1]: 74%
IC50 [2]: 33.2 µM

CCN(CC)c1ccc(/C=N/c2sc3c(c2C#N)C2CCN3CC2)c(O)c1
inhibition [1]: 82.6%
IC50 [2]: 38 µM

Cn1c(=O)c([N+](=O)[O-])c(Oc2ccccc2)c2ccccc21
inhibition [1]: 15.3%
IC50 [2]: > 50 µM (inactive)

O=[N+]([O-])c1ccc(/C=C/C2=NN(c3ccccc3)C(c3ccco3)C2)o1 (stereo unspecified)
inhibition [1]: 37.1%
IC50 [2]: > 50 µM (inactive)

COC(=O)c1cc(=O)n(Cc2ccco2)c(=Nc2ccc(F)c(Cl)c2)s1
inhibition [1]: 31.4%
IC50 [2]: > 50 µM (inactive)

CC(=O)N(C1CC(C)C(C#N)(C#N)C1(C#N)C#N)N(C)C (stereo unspecified)
inhibition [1]: 5.79%
IC50 [2]: > 50 µM (inactive)

CC1(C)C(=O)Nc2ccccc2N1C(=O)Cn1ncc(Cl)c(Cl)c1=O
inhibition [1]: 71.9%
IC50 [2]: 12.3 µM

C=C1C(=O)[C@@]23[C@H](O)C[C@@H]4C(C)(C)CC[C@H](O)[C@]4(C)[C@@H]2C[C@H](O)[C@@H]1[C@H]3O
inhibition [1]: 54.9%
IC50 [2]: 9.84 µM
